Test results reported in patent US7407753B2, “Methods, kits and pharmaceutical compositions for diagnosing, delaying onset of, preventing and/or treating osteoporosis” (priority 2004, dated 2008).

What was measured:
[1] = system: tissue non-specific alkaline phosphatase (TNSALP); assay: TNSALP activity in the preosteoblastic stromal cell cultures; format: cell-based, mouse; conditions: preosteoblastic stromal cell culture, early differentiation stage; data not shown
Experimental: (§1) Cell cultures and mRNA analysis—Osteoclastogenic cultures of monocytes derived from femora and tibiae of WT C57BL/6J mice were set as previously reported (Zou, W., et al., 2002. FASEB J. 16: 274-282). After separation and prior to RNA extraction or cell counts the cells were cultured for 5 days in medium containing M-CSF and RANKL (R&D Systems Inc. Minneapolis, Minn.). Primary bone marrow stromal cell cultures from femoral diaphyseal bone marrow and the MC3T3 E1 cells were cultured as reported previously (Frenkel, B., et al., 1997. Endocrinology 138: 2109-2116; Bab, I., et al., 1992. EMBO J. 11: 1867-1873). The cells were grown in osteogenic medium containing ascorbic acid, β-glycerophophate and dexamethasone (Frenkel, B., et al., 1997. Endocrinology 138: 2109-2116).
(§2) In the cell count experiments, ligands were dissolved in dimethylsulfoxide and further diluted to their final concentration using tissue culture medium. For osteoclast counts the cultures were fixed in ethanol and TRAP-stained. […] The cells were then serum starved for 2 hours followed by 48 hours incubation in (α-MEM supplemented with 4% BSA and ligand. Cells were separated using chondroitinase and trypsin (Krebsbach, P. H., et al., 1998. Transplantation 66, 1272-1278) and counted with a hemocytometer in triplicate wells per condition.

[2] = system: diaphyseal bone marrow derived stromal cells; assay: cell count of bone marrow derived stromal cells (preosteoblasts) challenged with ligand; format: cell-based, mouse; conditions: cells grown for 10 days in osteogenic medium; 48 hours incubation with ligand; FIG. 1f
Experimental: as §1, §2

[3] = system: bone marrow derived osteoclastic cell system; assay: count of TRAP-positive multinucleated osteoclasts in primary osteoclastogenic monocyte culture; format: cell-based, mouse; conditions: osteoclastogenic monocyte culture with M-CSF and RANKL; FIG. 1g
Experimental: as §1, §2

OVX mice = assay: ovariectomy (OVX)-induced femoral bone loss in sexually mature mice; format: in vivo, mouse; conditions: C3H OVX mice, 10 mg/Kg/day subcutaneously for 4 weeks from time of operation; FIGS. 4a-g
Experimental: Ovariectomy (OVX) mice—C3H mice (Harlan, Israel) were subjected to an ovariectomy procedure. HU-308 was synthesized as described before [Hanus, L., et al. HU-308: a specific agonist for CB(2), a peripheral cannabinoid receptor. Proc. Natl. Acad. Sci. U.S.A. 96: 14228-142-33 (1999)] and was daily injected once subcutaneously as an ethanol/emulphor/saline (1:1:18) solution.
All reported animals received calcein flurochrome (Sigma), 15 mg/Kg intraperitoneally four days and one day prior to sacrifice. […]
Micro-computed tomography (μCT)—Whole femora were examined by μCT 40 (Scanco Medical, Bassersdorf, Switzerland). […] Trabecular bone parameters were measured in a metaphyseal segment, extending proximally from the proximal tip of the primary spongiosa to the proximal border of the distal femoral quartile. Cortical bone parameters were determined in a diaphyseal segment extending 1.12 mm distally from the midpoint between the femoral ends.
Histomorphometry and immunohistochemistry—After μCT image acquisition, the specimens were embedded undecalcified in Technovit 9100 (Heracus Kulzer, Wehrheim, Germany). […] Parameters were determined according to a standardized nomenclature [Parfitt, A. M., et al. Bone histomorphometry: standardization of nomenclature, symbols, and units. […]

Structure (SMILES) | activity of the tissue non-specific alkaline phosphatase (TNSALP) [1] | number of diaphyseal bone marrow derived stromal cells [2] | number of TRAP positive multinucleated cells [3] | ovariectomy (OVX)-induced femoral bone loss (OVX mice)
CCCCCCC(C)(C)c1cc(OC)c([C@@H]2C=C(CO)[C@@H]3C[C@H]2C3(C)C)c(OC)c1 [HU-308] | unaffected | potent increase | marked dose dependent decrease | attenuating
CCCCC/C=C\C/C=C\C/C=C\C/C=C\CCCCOC(CO)CO [Noladin ether, 2-arachidonyl glyceryl ether] |  | no significant effect |  | 
